From patent publication US11279733B2, “Peptide antibiotics” (priority 2017, dated 2022)
Converted amounts (≈) assume the structure as drawn. Positions of bridges follow the written chain, without caps; N, C: chain ends. Non-standard residues stand in square brackets, D forms with d. Residues, ends and D or L forms follow the SMILES beside them. *: point of attachment. Decanoyl(3R-OH) = CCCCCCC[C@@H](O)CC(=O)*; dPhe(4-NH2) = Nc1ccc(C[C@@H](N)C(=O)O)cc1; d3Pal = N[C@H](Cc1cccnc1)C(=O)O; Dab = NCC[C@H](N)C(=O)O

Assays:
[1] = tested on: A. baumannii ATCC 19606; conditions: ATCC 19606
Method: (§1) Bacteria were either obtained from American Type Culture Collection (ATCC; Manassas, Va., USA) or independent academic clinical isolate collections, as listed in Table 18 below. Bacteria were cultured in Nutrient broth (NB; Bacto Laboratories, catalogue No. 234000) or Mueller Hinton broth (MHB; Bacto Laboratories, catalogue No. 211443) at 37° C. overnight with shaking (˜180 RPM). A sample of each culture was then diluted 50-fold in fresh MHB and incubated at 37° C. for 2-3 h with shaking (˜180 RPM). Compound stock solutions were prepared as 0.64 mg/mL or 2.56 mg/mL in water. The compounds, at twice the final desired concentration, were serially diluted 2-fold across the wells of 96-well plates (Polystyrene, Corning, catalogue No. 3370). Mid-log phase bacterial cultures (after 2-3 h incubation) were diluted to a final concentration of 1×10^6 colony forming units (CFU)/mL, and 50 μL was added to each well giving a final cell density of 5×10^5 and a compound concentration range of 32 μg/mL to 0.015 μg/mL (128-0.06 μg/mL against P. aeruginosa PA9704).

[2] = tested on: A. baumannii GN_093 PmxR; conditions: GN 093 PmxR
Method: as §1

[3] = tested on: E. coli ATCC 25922; conditions: ATCC 25922
Method: as §1

[4] = tested on: K. pneumoniae ATCC 13883; conditions: ATCC 13883
Method: as §1

[5] = tested on: K. pneumoniae ATCC 700603, MDR; conditions: ATCC 700603
Method: as §1

[6] = tested on: K. pneumoniae ATCC BAA-2146, NDM-1 pos; conditions: ATCC BAA-2146
Method: as §1

[7] = tested on: K. pneumoniae GN_102 PmxR; conditions: GN 102 PmxR
Method: as §1

[8] = tested on: K. pneumoniae GN_106, PmxR; conditions: GN 106, PmxR
Method: as §1

[9] = tested on: P. aeruginosa ATCC 27853; conditions: ATCC 27853
Method: as §1

[10] = tested on: P. aeruginosa GN_043, PmxR; conditions: Table 6; polymyxin-resistant
Method: as §1

[11] = tested on: P. aeruginosa GN_105, PmxR; conditions: GN 105, PmxR
Method: as §1

[12] = tested on: S. aureus ATCC 25923, MSSA; conditions: ATCC 25923
Method: as §1

Structure (SMILES) | MIC, A. baumannii ATCC 19606 [1] | MIC A. baumannii GN_093 PmxR [2] | MIC, E. coli ATCC 25922 [3] | MIC, K. pneumoniae ATCC 13883 [4] | MIC, K. pneumoniae ATCC 700603, MDR [5] | MIC, K. pneumoniae ATCC BAA-2146, NDM-1 pos [6] | MIC K. pneumoniae GN_102 PmxR [7] | MIC K. pneumoniae GN_106, PmxR [8] | MIC, P. aeruginosa ATCC 27853 [9] | MIC P. aeruginosa GN_043, PmxR [10] | MIC P. aeruginosa GN_105, PmxR [11] | MIC, S. aureus ATCC 25923, MSSA [12]
CCCCCCC[C@@H](O)CC(=O)N[C@H](Cc1ccc(N)cc1)C(=O)N[C@H]1CCNC(=O)[C@H](CC(C)C)NC(=O)[C@H](CCN)NC(=O)[C@H](CCN)NC(=O)[C@H](CC(C)C)NC(=O)[C@@H](Cc2ccccc2)NC(=O)[C@H](CCN)NC1=O [compound 6444, 3(R)OH-nC9CO-D-4NH2Phe-cyc[L-Dab-L-Dab-D-Phe-L-Leu-L-Dab-L-Dab-L-Leu]] ({Decanoyl(3R-OH)}-[dPhe(4-NH2)][Dab][Dab][dF]L[Dab][Dab]L; lactam 2-C) | 32 mg/L (≈ 28.9 µM) | 32 mg/L (≈ 28.9 µM) | 8 mg/L (≈ 7.23 µM) | 8 mg/L (≈ 7.23 µM) | 8 mg/L (≈ 7.23 µM) | 8 mg/L (≈ 7.23 µM) | 8 mg/L (≈ 7.23 µM) | 8 mg/L (≈ 7.23 µM) | 16 mg/L (≈ 14.5 µM) | 32 mg/L (≈ 28.9 µM) | 16 mg/L (≈ 14.5 µM) | >32 mg/L
CCCCCCC[C@@H](O)CC(=O)N[C@H](Cc1cccnc1)C(=O)N[C@H]1CCNC(=O)[C@H](CC(C)C)NC(=O)[C@H](CCN)NC(=O)[C@H](CCN)NC(=O)[C@H](CC(C)C)NC(=O)[C@@H](Cc2ccccc2)NC(=O)[C@H](CCN)NC1=O [compound 6445, 3(R)OH-nC9CO-D-3PyPhe-cyc[L-Dab-L-Dab-D-Phe-L-Leu-L-Dab-L-Dab-L-Leu]] ({Decanoyl(3R-OH)}-[d3Pal][Dab][Dab][dF]L[Dab][Dab]L; lactam 2-C) | 32 mg/L (≈ 29.3 µM) | >32 mg/L | 8 mg/L (≈ 7.32 µM) | 4 mg/L (≈ 3.66 µM) | 8 mg/L (≈ 7.32 µM) | 8 mg/L (≈ 7.32 µM) | 8 mg/L (≈ 7.32 µM) | 4 mg/L (≈ 3.66 µM) | 16 mg/L (≈ 14.6 µM) | 8 mg/L (≈ 7.32 µM) | 8 mg/L (≈ 7.32 µM) | >32 mg/L
CCCCCCC[C@@H](O)CC(=O)NCC(=O)N[C@H]1CCNC(=O)[C@H](CC(C)C)NC(=O)[C@H](CCN)NC(=O)[C@H](CCN)NC(=O)[C@H](CC(C)C)NC(=O)[C@@H](Cc2ccccc2)NC(=O)[C@H](CCN)NC1=O [compound 6446, 3(R)OH-nC9CO-Gly-cyc[L-Dab-L-Dab-D-Phe-L-Leu-L-Dab-L-Dab-L-Leu]] ({Decanoyl(3R-OH)}-G[Dab][Dab][dF]L[Dab][Dab]L; lactam 2-C) | 32 mg/L (≈ 32 µM) | 32 mg/L (≈ 32 µM) | 8 mg/L (≈ 7.99 µM) | 8 mg/L (≈ 7.99 µM) | 8 mg/L (≈ 7.99 µM) | 8 mg/L (≈ 7.99 µM) | 4 mg/L (≈ 3.99 µM) | 8 mg/L (≈ 7.99 µM) | 4 mg/L (≈ 3.99 µM) | 4 mg/L (≈ 3.99 µM) | 4 mg/L (≈ 3.99 µM) | >32 mg/L
CCCCCCC[C@@H](O)CC(=O)N[C@H](CC(N)=O)C(=O)N[C@H]1CCNC(=O)[C@H](CC(C)C)NC(=O)[C@H](CCN)NC(=O)[C@H](CCN)NC(=O)[C@H](CC(C)C)NC(=O)[C@@H](Cc2ccccc2)NC(=O)[C@H](CCN)NC1=O [compound 6447, 3(R)OH-nC9CO-D-Asn-cyc[L-Dab-L-Dab-D-Phe-L-Leu-L-Dab-L-Dab-L-Leu]] ({Decanoyl(3R-OH)}-[dN][Dab][Dab][dF]L[Dab][Dab]L; lactam 2-C) | 16 mg/L (≈ 15.1 µM) | 8 mg/L (≈ 7.56 µM) | 4 mg/L (≈ 3.78 µM) | 4 mg/L (≈ 3.78 µM) | 8 mg/L (≈ 7.56 µM) | 8 mg/L (≈ 7.56 µM) | 4 mg/L (≈ 3.78 µM) | 4 mg/L (≈ 3.78 µM) | 8 mg/L (≈ 7.56 µM) | 8 mg/L (≈ 7.56 µM) | 4 mg/L (≈ 3.78 µM) | 32 mg/L (≈ 30.2 µM)
